Experimental data reported in patent US12077503B2, “Substituted cyclic amides and their use as herbicides” (FMC CORPORATION, priority 2015, dated 2024).

Assays:
Format in all cases: in vivo
[1] = system: ivy-leaved morning glory (Ipomoea hederacea); assay: Test G Post-Emergence Protocol; conditions: Ipomoea, post-emergence, 312 h
Outline: (§1)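 Post-emergence herbicidal damage, scored visually 0–100 at 13 days. Application at 15.625, 62.5 or 250 g/ha onto 8-day-old plants grown under glasshouse control.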

[2] = system: redroot pigweed (Amaranthus retroflexus); assay: Test G Post-Emergence Protocol; conditions: Amaranthus retroflexus, post-emergence, 312 h
Outline: as §1

corn (Zea mays) [3] = assay: Test G Post-Emergence Protocol; conditions: Zea mays, post-emergence, 312 h
Outline: as §1

[4] = system: barnyardgrass (Echinochloa crus-galli); assay: Test G Post-Emergence Protocol; conditions: Echinochloa crus-galli, post-emergence, 312 h
Outline: as §1

[5] = system: velvetleaf (Abutilon theophrasti); assay: Test G Post-Emergence Protocol; conditions: Abutilon theophrasti, post-emergence, 312 h
Outline: as §1

[6] = system: giant foxtail (Setaria faberi); assay: Test G Post-Emergence Protocol; conditions: Setaria faberi, post-emergence, 312 h
Outline: as §1

[7] = system: ivy-leaved morning glory (Ipomoea hederacea); assay: Test G Pre-Emergence Protocol; conditions: Ipomoea, pre-emergence, 312 h, evaluated after 13 days
Outline: (§2)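 Under a 24/16° C day/night regime with 14 h light and 65% humidity, sown pots were sprayed after one day with compound (15.625, 62.5 or 250 g/ha; 50:50 acetone/water, 0.5% Tween 20). Damage was assessed visually 13 days later, 0 to 100.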

[8] = system: redroot pigweed (Amaranthus retroflexus); assay: Test G Pre-Emergence Protocol; conditions: Amaranthus retroflexus, pre-emergence, 312 h, evaluated after 13 days
Outline: as §2

corn (Zea mays) [9] = assay: Test G Pre-Emergence Protocol; conditions: Zea mays, pre-emergence, 312 h, evaluated after 13 days
Outline: as §2

[10] = system: barnyardgrass (Echinochloa crus-galli); assay: Test G Pre-Emergence Protocol; conditions: Echinochloa crus-galli, pre-emergence, 312 h, evaluated after 13 days
Outline: as §2

[11] = system: velvetleaf (Abutilon theophrasti); assay: Test G Pre-Emergence Protocol; conditions: Abutilon theophrasti, pre-emergence, 312 h, evaluated after 13 days
Outline: as §2

[12] = system: giant foxtail (Setaria faberi); assay: Test G Pre-Emergence Protocol; conditions: Setaria faberi, pre-emergence, 312 h, evaluated after 13 days
Outline: as §2

Cc1cncc(NC(=O)[C@@H]2C(=O)N(C)C[C@H]2c2ccc(C(F)(F)F)cc2)n1 (racemic) [Compound 1647]
pest or weed control at 15.625 g/ha ([1]; 15.625 g ai/ha, evaluated after 13 days (100=total damage to plant; 0=no damage to plant), read-out: Morningglory, Ivy-leaved damage rating): 0% | pest or weed control at 62.5 g/ha ([1]; 62.5 g ai/ha, evaluated after 13 days, read-out: Morningglory, Ivy-leaved damage rating (100=total damage to plant; 0=no damage to plant)): 0% | pest or weed control at 250 g/ha ([1]; 250 g ai/ha, evaluated after 13 days, read-out: damage to plant, Morningglory, Ivy-leaved (100=total damage to plant; 0=no damage to plant)): 20% | pest or weed control at 15.625 g/ha ([2]; 15.625 g ai/ha, evaluated after 13 days (100=total damage to plant; 0=no damage to plant), read-out: Pigweed, Redroot damage rating): 0% | pest or weed control at 62.5 g/ha ([2]; 62.5 g ai/ha, evaluated after 13 days, read-out: Pigweed, Redroot damage rating (100=total damage to plant; 0=no damage to plant)): 0% | pest or weed control at 250 g/ha ([2]; 250 g ai/ha, evaluated after 13 days, read-out: damage to plant, Pigweed, Redroot (100=total damage to plant; 0=no damage to plant)): 30% | plant injury at 15.625 g/ha (corn (Zea mays) [3]; 15.625 g ai/ha, evaluated after 13 days (100=total damage to plant; 0=no damage to plant), read-out: Corn damage rating): 0% | plant injury at 62.5 g/ha (corn (Zea mays) [3]; 62.5 g ai/ha, evaluated after 13 days, read-out: Corn damage rating (100=total damage to plant; 0=no damage to plant)): 0% | plant injury at 250 g/ha (corn (Zea mays) [3]; 250 g ai/ha, evaluated after 13 days, read-out: damage to plant, Corn (100=total damage to plant; 0=no damage to plant)): 10% | pest or weed control at 15.625 g/ha ([4]; 15.625 g ai/ha, evaluated after 13 days (100=total damage to plant; 0=no damage to plant), read-out: Barnyardgrass damage rating): 0% | pest or weed control at 62.5 g/ha ([4]; 62.5 g ai/ha, evaluated after 13 days, read-out: Barnyardgrass damage rating (100=total damage to plant; 0=no damage to plant)): 0% | pest or weed control at 250 g/ha ([4]; 250 g ai/ha, evaluated after 13 days, read-out: damage to plant, Barnyardgrass (100=total damage to plant; 0=no damage to plant)): 50% | pest or weed control at 15.625 g/ha ([5]; 15.625 g ai/ha, evaluated after 13 days (100=total damage to plant; 0=no damage to plant), read-out: Velvetleaf damage rating): 0% | pest or weed control at 62.5 g/ha ([5]; 62.5 g ai/ha, evaluated after 13 days, read-out: Velvetleaf damage rating (100=total damage to plant; 0=no damage to plant)): 0% | pest or weed control at 250 g/ha ([5]; 250 g ai/ha, evaluated after 13 days, read-out: damage to plant, Velvetleaf (100=total damage to plant; 0=no damage to plant)): 40% | pest or weed control at 15.625 g/ha ([6]; 15.625 g ai/ha, evaluated after 13 days (100=total damage to plant; 0=no damage to plant), read-out: Foxtail, Giant damage rating): 0% | pest or weed control at 62.5 g/ha ([6]; 62.5 g ai/ha, evaluated after 13 days, read-out: Foxtail, Giant damage rating (100=total damage to plant; 0=no damage to plant)): 30% | pest or weed control at 250 g/ha ([6]; 250 g ai/ha, evaluated after 13 days, read-out: damage to plant, Foxtail, Giant (100=total damage to plant; 0=no damage to plant)): 70% | pest or weed control at 15.625 g/ha ([7]; 15.625 g ai/ha, read-out: Morning-glory, Ivy-leaved damage rating (100=total damage to plant; 0=no damage to plant)): 0% | pest or weed control at 62.5 g/ha ([7]; 62.5 g ai/ha, 100=total damage to plant, 0=no damage to plant, read-out: plant damage rating, Morningglory, Ivy-leaved): 0% | pest or weed control at 250 g/ha ([7]; 250 g ai/ha, read-out: Morningglory, Ivy-leaved damage rating (100=total damage to plant; 0=no damage to plant)): 0% | pest or weed control at 15.625 g/ha ([8]; 15.625 g ai/ha, read-out: Pigweed, Redroot damage rating (100=total damage to plant; 0=no damage to plant)): 0% | pest or weed control at 62.5 g/ha ([8]; 62.5 g ai/ha, 100=total damage to plant, 0=no damage to plant, read-out: plant damage rating, Pigweed, Redroot): 0% | pest or weed control at 250 g/ha ([8]; 250 g ai/ha, read-out: Pigweed, Redroot damage rating (100=total damage to plant; 0=no damage to plant)): 20% | plant injury at 15.625 g/ha (corn (Zea mays) [9]; 15.625 g ai/ha, read-out: Corn damage rating (100=total damage to plant; 0=no damage to plant)): 0% | plant injury at 62.5 g/ha (corn (Zea mays) [9]; 62.5 g ai/ha, 100=total damage to plant, 0=no damage to plant, read-out: plant damage rating, Corn): 0% | plant injury at 250 g/ha (corn (Zea mays) [9]; 250 g ai/ha, read-out: Corn damage rating (100=total damage to plant; 0=no damage to plant)): 0% | pest or weed control at 15.625 g/ha ([10]; 15.625 g ai/ha, read-out: Barnyard grass damage rating (100=total damage to plant; 0=no damage to plant)): 0% | pest or weed control at 62.5 g/ha ([10]; 62.5 g ai/ha, 100=total damage to plant, 0=no damage to plant, read-out: plant damage rating, Barnyardgrass): 0% | pest or weed control at 250 g/ha ([10]; 250 g ai/ha, read-out: Barnyardgrass damage rating (100=total damage to plant; 0=no damage to plant)): 0% | pest or weed control at 15.625 g/ha ([11]; 15.625 g ai/ha, read-out: Velvetleaf damage rating (100=total damage to plant; 0=no damage to plant)): 0% | pest or weed control at 62.5 g/ha ([11]; 62.5 g ai/ha, 100=total damage to plant, 0=no damage to plant, read-out: plant damage rating, Velvetleaf): 0% | pest or weed control at 250 g/ha ([11]; 250 g ai/ha, read-out: Velvetleaf damage rating (100=total damage to plant; 0=no damage to plant)): 10% | pest or weed control at 15.625 g/ha ([12]; 15.625 g ai/ha, read-out: Foxtail, Giant damage rating (100=total damage to plant; 0=no damage to plant)): 0% | pest or weed control at 62.5 g/ha ([12]; 62.5 g ai/ha, 100=total damage to plant, 0=no damage to plant, read-out: plant damage rating, Foxtail, Giant): 0% | pest or weed control at 250 g/ha ([12]; 250 g ai/ha, read-out: Foxtail, Giant damage rating (100=total damage to plant; 0=no damage to plant)): 70%
